Entries after “also recorded” stand apart in the source; their conditions may differ.
How the values were obtained:
[1] = tested on: ERK1/2; assay: ERK1/2 phosphorylation immunoblot in JEG-3 cells; type: cell-based, human; settings: for extent of ERK1/2 phosphorylation (activation): 100 nM, 10 minutes
[2] = molecular target: T1, Type I GnRH receptor (Rattus norvegicus, UniProt P30969); assay: Inositol phosphate accumulation in SCL60 (HEK293) cells; type: cell-based; settings: GnRH I 10 nM
T1 construct: expressed in transfected cells
T1 sequence (P30969 1-327): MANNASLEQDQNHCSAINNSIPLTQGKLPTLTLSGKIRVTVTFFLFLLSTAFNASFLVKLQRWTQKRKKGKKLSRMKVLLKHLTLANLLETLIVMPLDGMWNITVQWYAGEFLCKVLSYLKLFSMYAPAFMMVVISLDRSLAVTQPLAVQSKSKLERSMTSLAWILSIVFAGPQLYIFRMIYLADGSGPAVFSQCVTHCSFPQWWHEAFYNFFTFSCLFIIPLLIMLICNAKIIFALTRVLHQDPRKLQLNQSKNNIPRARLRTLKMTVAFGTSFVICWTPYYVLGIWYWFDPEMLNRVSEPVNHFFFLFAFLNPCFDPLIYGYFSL
Description: The histograms in panels a and b represent inositol phosphate accumulation data from HEK293 cells stably expressing the Type I GnRH receptor only (SCL60). […] In panels c and d, the liberated inositol phosphates generated were measured in the proto-gonadotrope cells (αT4) stably expressing the marmoset Type II GnRH receptor (designated αT4-II).
The ability of the four major agents under study at activating ectopically expressed Type I or Type II GnRHR were tested (FIG. 12). The classical signal transduction cascade activated by GnRHR stimulation is the Gαq-PLC-β cascade. Both Type I and II receptor can stimulate the Gαq-PLC type-G-protein and activate PLC-β which cleaves phosphatidylinositol bisphosphate (PIP2) into inositol trisphosphate (IP3), other lower inositol phosphates (IPn) and diacylglycerol (DAG). The major function of IP3 is to elevate intracellular Ca^2+ while DAG causes the activation of specific PKC (protein kinase C) isoforms.
Panels a and b of FIG. 12 depict the generation of free cytoplasmic ^3H-myo-inositols on the plasma membranes of HEK293 cells expressing the Type I GnRHR and of αT4 gonadotropes expressing the marmoset Type II GnRHR. Prior to agonist stimulation the respective cells were incubated in inositol-free growth media supplemented with 1 μCi/ml ^3H-myoinositol for 48 h. G protein coupled receptor (GPCR)-induced activation of PLC-β results in the cleavage of PIP2 (incorporating tritium ^3H) into free lower inositol phosphates (IPns).

[3] = tested on: human benign prostate hyperplastic (BPH-1) cells; assay: Anti-proliferative effect on BPH-1 cells, viable cell count after 5 days; type: cell-based; settings: 5 days continuous treatment, trypan blue exclusion
Description: Low cell density BPH-1 cell subcultures were treated for 5 days continuously with the indicated doses of GnRH I (a), GnRH II (b), Ant 135-18 (c) or Ant 135-25 (d) added directly to RPMI 1640 medium supplemented with 10% FCS, glutamine and penicillin/streptomycin. Ligands were replenished every 24 h. At the end of the stimulation period cells were removed form the growth plates by trypsin and mixed with trypan blue dye (enters non-viable cells). Only viable cells were therefore counted using a haemocytometer in quadruplicate for each ligand dose. The bars in each histogram represent the mean±s.e. mean of n=4 experiments.
Each cell type was plated at an initial minimal confluency (10-20%) to allow for 5 days of normal continual cell growth that would not result in 100% cell confluency by day 5. Each ligand was incubated, in triplicate for every experimental concentration, with the cell monolayers for five days with replacement of the ligand every 12 h. At the end of the stimulation period the number of viable cells was estimated by their capacity to prevent uptake of Trypan Blue stain.
Employing an identical growth and stimulation methodology to that described in the previous paragraph and in FIG. 1 we exposed the hyperplastic cell line, BPH-1, to the same panel of GnRH ligands and antagonistic analogues (FIG. 2). Reminiscent of FIG. 1 both endogenous GnRH agonists exert a similar mode of action with respect to their dose-dependent inhibition of BPH-1 cell growth over the five day stimulation period.

agonistic activity: liberated inositol phosphates at Type I GnRH receptor ([2]; listed as 135-25)	Molecule	effect on GnRH I activation of ERK1/2 ([1]; 20 μM SB203580, data not shown)	extent of ERK1/2 phosphorylation (activation) [1]	agonistic activity: liberated inositol phosphates at Type I GnRH receptor [2]	agonistic activity: liberated inositol phosphates at Type I GnRH receptor ([2]; listed as Ant135-25)	agonistic activity: liberated inositol phosphates at Type I GnRH receptor ([2]; listed as antagonist 135-25)	anti-proliferative effect (viable cell number) [3]	extent of ERK1/2 phosphorylation (activation) ([1]; listed as Ant135-18)	agonistic activity: liberated inositol phosphates at Type I GnRH receptor ([2]; listed as 135-18)	agonistic activity: liberated inositol phosphates at Type I GnRH receptor ([2]; listed as Ant135-18)	anti-proliferative effect (viable cell number) ([3]; listed as Ant135-18)
	C[S+]([O-])c1ccc(-c2nc(-c3ccncc3)c(-c3ccc(F)cc3)[nH]2)cc1 (centres unmarked) [SB203580]	not significantly affecting the activation of ERK1/2 MAPKs									
no IPn-generating capacity	Ac-D-Nal(2)-D-4-ClPhe-D-Pal-Ser-1-MePal-D-IsopropylLys-Leu-IsopropylLys-Pro-D-AlaNH2 [Ant 135-25]		activate ERK1/2 to a similar extent	no classical agonistic activity is demonstrated	demonstrate no partial agonistic activity	failed to generate significant free inositol phosphate	anti-proliferative effect upon BPH-1 cells with a similar potency to that of GnRH I				
	Ac-D-Nal(2)-D-4-ClPhe-D-Pal-Ser-Ile-D-IsopropylLys-Leu-IsopropylLys-Pro-D -AlaNH2 [Ant 135-18]		least effective	little classical agonistic capacity			much lower potency and efficacy compared to Ant 135-25 and GnRH I	considerably less	no activation of the PLC-β signal at the Type I receptor evident	demonstrate no partial agonistic activity	low ant-proliferative potency
	GnRH I: Gonadotropin-Releasing Hormone, a decapeptide; the original form of GnRH, re-named GnRH I		activate ERK1/2 to a similar extent	yields an increase in free tritiated inositol phosphates; also recorded: significant increase in liberated inositol phosphates			potent and dose-dependent anti-proliferative effect; also recorded: more potent that GnRH II in its capacity to arrest cell growth				

— patent publication US7361633B2, “Screening method and anti-tumor drug candidate obtained therefrom” (Ardana Bioscience Limited, priority 2002, dated 2008)
